# Test results as given in patent publication US5494790A, “α-3 sialyltransferase” (Kyowa Hakko Kogyo Co., Ltd., priority 1991, dated 1996).
# Columns and labels:
# [1] = system: α2→3 Sialyltransferase encoded in the plasmid pAMoPRSAL-35F (fused protein with the IgG-binding region of Staphylococcus aureus protein A); assay: Sialyltransferase activity on IgG Sepharose, HPLC of pyridylaminated sugar chain substrates (Table 1); type: biochemical, human; settings: for α2→3 Sialyltransferase activity, pAMoPRSAL-35F, pmol: 0.1 mM substrate, 5 μl IgG Sepharose, 5 mM CMP-sialic acid, 37° C., 2 hours; for acceptance as substrate by the α2→3 sialyltransferase (in words): IgG Sepharose from Namalwa cells having pAMoPRSAL-35F; for α2→3 Sialyltransferase activity, pAMoPRSAL-35F, Relative activity: activity to the substrate LNnT taken as 100
# [2] = biological target: T1, α2→3 sialyltransferase encoded in the plasmid pAMoPRSAW17-31F (fused protein with the IgG-binding region of Staphylococcus aureus protein A) (Homo sapiens, UniProt Q11206); assay: Sialyltransferase activity on IgG Sepharose, HPLC of pyridylaminated sugar chain substrates (Table 2); type: biochemical; settings: for α2→3 Sialyltransferase activity, pAMoPRSAW17-31F, pmol: 0.1 mM substrate, 5 μl IgG Sepharose, 5 mM CMP-sialic acid, 37° C., 2 hours; for acceptance as substrate by the α2→3 sialyltransferase (in words): IgG Sepharose from Namalwa cells having pAMoPRSAW17-31F; for α2→3 Sialyltransferase activity, pAMoPRSAW17-31F, Relative activity: activity to the substrate LNnT taken as 100
# T1 construct: from 31st Phe to 329th Phe; made in house
# T1 sequence (Q11206 35-333): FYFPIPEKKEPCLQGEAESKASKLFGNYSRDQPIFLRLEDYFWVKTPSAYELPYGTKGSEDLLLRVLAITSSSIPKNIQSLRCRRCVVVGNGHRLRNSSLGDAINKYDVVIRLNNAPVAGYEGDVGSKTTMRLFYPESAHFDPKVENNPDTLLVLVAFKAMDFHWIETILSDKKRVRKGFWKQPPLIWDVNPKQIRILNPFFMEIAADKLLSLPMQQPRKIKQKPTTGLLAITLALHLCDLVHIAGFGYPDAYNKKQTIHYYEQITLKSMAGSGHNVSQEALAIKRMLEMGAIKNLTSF
# [3] = biological target: T2, known α2→3 sialyltransferase (Rattus norvegicus, UniProt Q02734); settings: activity to the substrate LNT taken as 100; cited from earlier work
# T2 sequence (Q02734 1-374): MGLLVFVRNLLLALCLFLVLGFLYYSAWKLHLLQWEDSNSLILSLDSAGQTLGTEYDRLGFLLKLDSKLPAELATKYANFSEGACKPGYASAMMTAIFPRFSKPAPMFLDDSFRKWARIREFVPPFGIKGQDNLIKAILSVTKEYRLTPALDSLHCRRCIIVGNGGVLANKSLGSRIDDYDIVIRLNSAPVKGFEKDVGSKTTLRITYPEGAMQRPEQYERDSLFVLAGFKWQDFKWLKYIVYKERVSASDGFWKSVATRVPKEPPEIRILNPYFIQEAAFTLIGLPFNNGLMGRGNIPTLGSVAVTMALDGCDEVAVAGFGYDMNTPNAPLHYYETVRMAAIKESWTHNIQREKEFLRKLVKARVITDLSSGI
Structure (SMILES),"α2→3 Sialyltransferase activity, pAMoPRSAL-35F, pmol [1]",acceptance as substrate by the α2→3 sialyltransferase (in words) [1],"α2→3 Sialyltransferase activity, pAMoPRSAL-35F, Relative activity [1]","α2→3 Sialyltransferase activity, pAMoPRSAW17-31F, pmol [2]",acceptance as substrate by the α2→3 sialyltransferase (in words) [2],"α2→3 Sialyltransferase activity, pAMoPRSAW17-31F, Relative activity [2]",Known α2→3 ST Relative activity (Table 1) [3],Known α2→3 ST Relative activity (Table 2) [3]
"CC(=O)N[C@H]1[C@H](O[C@H]2[C@@H](O)[C@@H](CO)O[C@@H](O[C@H]3[C@H](O)[C@@H](O)C(O)O[C@@H]3CO)[C@@H]2O)O[C@H](CO)[C@@H](O)[C@@H]1O[C@@H]1O[C@H](CO)[C@H](O)[C@H](O)[C@H]1O (some centres unmarked) [LNT, Galβ1-3GlcNAcβ1-3Galβ1-4Glc]",23.8 pmol,can take not only LNnT but also LNT as the substrate,46,47.5 pmol,can take not only LNnT but also LNT as the substrate,42,100,100
"CC(=O)N[C@H]1[C@H](O[C@H]2[C@@H](O)[C@@H](CO)O[C@@H](O[C@H]3[C@H](O)[C@@H](O)C(O)O[C@@H]3CO)[C@@H]2O)O[C@H](CO)[C@@H](O[C@@H]2O[C@H](CO)[C@H](O)[C@H](O)[C@H]2O)[C@@H]1O (some centres unmarked) [LNnT, Galβ1-4GlcNAcβ1-3Galβ1-4Glc]",51.3 pmol,can take not only LNnT but also LNT as the substrate,100,113.8 pmol,can take not only LNnT but also LNT as the substrate,100,6,6
CC(=O)N[C@H]1[C@H](O[C@H]2[C@@H](O)[C@@H](CO)O[C@@H](O[C@H]3[C@H](O)[C@@H](O)C(O)O[C@@H]3CO)[C@@H]2O)O[C@H](CO)[C@@H](O[C@@H]2O[C@H](CO)[C@H](O)[C@H](O)[C@H]2O)[C@@H]1O[C@@H]1O[C@@H](C)[C@@H](O)[C@@H](O)[C@@H]1O (some centres unmarked) [lacto-N-fucopentaose III],8.1 pmol,can take LNFP-III as the substrate,16,9.4 pmol,can take LNFP-III as the substrate,8,,
CC(=O)N[C@H]1[C@H](O[C@H]2[C@@H](O)[C@@H](CO)O[C@@H](O[C@H]3[C@H](O[C@@H]4O[C@@H](C)[C@@H](O)[C@@H](O)[C@@H]4O)[C@@H](O)C(O)O[C@@H]3CO)[C@@H]2O)O[C@H](CO)[C@@H](O)[C@@H]1O[C@@H]1O[C@H](CO)[C@H](O)[C@H](O)[C@H]1O (some centres unmarked) [lacto-N-fucopentaose V],28.8 pmol,,56,36.3 pmol,,32,,
